This is an account of results in PubChem BioAssay (NCI).

Where “and” joins values, the source holds several entries; their conditions need not be identical. Identical values can stand only once.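 Tested at 5 concentrations; 48 h exposure; 96-well plates; endpoints linearly interpolated, else capped at highest concentration. GI50: concentration for 50% inhibition of growth. TGI: total growth inhibition.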

What all share (experiment): NCI tumour cell line growth inhibition, 48 h
For experiment [1], the system named is A498 renal.
For experiment [2], the system named is HOP-62 NSCLC.
Experiment [3] concerns HOP-92 NSCLC.
Experiment [4] concerns LOX IMVI melanoma.
The test system of experiment [5] is NCI-H460 lung.
The test system of experiment [6] is NCI-H522 lung.
Experiment [7] concerns SK-MEL-2 melanoma.
Experiment [8] relates to TK-10 renal.
The test system of experiment [9] is U251 CNS.
The subject of experiment [10] is BT-549 breast.

Take `N#Cc1cc([N+](=O)[O-])ccc1NC(=O)C(=O)Nc1n[nH]c(N)n1`: the TGI in [1], in [2], in experiment [3], in experiment [4], in [5] and in experiment [6] was > 100 µM in each case. The TGI in experiment [7], in experiment [8] and in experiment [9] was > 100 µM each time.
Turning to `CC(=O)CNC(=O)OC(C)(C)C`, the TGI in [1], in experiment [2], in experiment [3], in experiment [5], in experiment [6] and in [7] was > 100 µM in each case. The TGI in experiment [8] and in experiment [9] was > 100 µM each time.
For the compound `C/C(CC(=O)Nc1ccc(C)cc1C)=N/N=C(N)N`, the TGI in [1], in experiment [2], in [3], in experiment [4], in experiment [5] and in [6] was > 100 µM in each case. The TGI in experiment [7], in experiment [8] and in experiment [9] was > 100 µM in each case.
Regarding `COC12C=C(C)C(CC1)CC2C(=O)O` (centres undefined), the TGI in experiment [1], in experiment [2], in [3], in experiment [4], in [5] and in [6] was > 100 µM throughout. For the same compound, the TGI in experiment [7], in experiment [8] and in [9] was > 100 µM in each case.
For the compound `COc1ccc(C2=CC3CCC2C3)cc1` (centres undefined), the TGI in experiment [1], in [2], in [3], in experiment [4], in experiment [5] and in experiment [6] was > 100 µM in each case. Further, the TGI in experiment [7], in [8] and in experiment [9] was > 100 µM throughout.
Turning to `CC(C)(C)C1C=C(Sc2ccccc2)C(=O)O1` (centres undefined), the TGI in [1] was > 100 µM; in [2], > 100 µM; in experiment [3], 75.2 µM; in experiment [4] it was > 100 µM; in [5], > 100 µM; in [6], 87.8 µM. Also, the TGI in experiment [7], in experiment [8] and in [9] was > 100 µM throughout.
Regarding `[Cl-].[Dy+3].[O-]/N=C(\c1ccccc1)c1ccccn1.[O-]/N=C(\c1ccccc1)c1ccccn1.[O-]/N=C(\c1ccccc1)c1ccccn1`, the GI50 was 25.8 µM in experiment [1]; 24.7 µM in experiment [2]; 41.4 µM in [3]; 21.9 µM in experiment [4]; 28.8 µM in experiment [5]; 19.5 µM in experiment [6]. Also, the GI50 in experiment [7] was 27.3 µM; in experiment [8], 46.3 µM; in experiment [9], 47.5 µM. The TGI in [1] was > 100 µM; in experiment [2] it was > 100 µM; in experiment [3], > 100 µM; in experiment [4], 54.1 µM; in experiment [5], > 100 µM; in experiment [6] it was 65.6 µM. The TGI in [7] is 64.8 µM; in [8], > 100 µM; in experiment [9], > 100 µM.
For `CCc1ccc(/C=C\c2cc(OC)c(OC)c(OC)c2)cc1`, the GI50 in experiment [1] is 0.0233 µM; in experiment [2] it was 0.0295 µM; in experiment [3], 0.0222 µM; in experiment [5], 0.0329 µM; in [7], 0.0258 µM. Besides, the TGI is 0.433 µM and 0.389 µM in experiment [1]; 18.3 µM in experiment [2]; 0.233 µM in experiment [3]; 0.581 µM in [4]; 0.0503 µM and 0.0384 µM in [6]; 0.66 µM and 0.203 µM in [7].
Turning to `CCC[CH2][Sn]1([CH2]CCC)[O]Cc2nc(C)ccc2[O]1`, the GI50 in [1] is 13.3 µM; in experiment [2] it was 10.1 µM; in experiment [3] it was 2.52 µM; in experiment [4], 1.95 µM; in [5], 16 µM; in [6], 1.19 µM. Besides, the GI50 was 3.32 µM in [7], 3.97 µM in experiment [8] and 4.73 µM in [9]. For the same compound, the TGI was 26.8 µM in experiment [1]; 22.5 µM in [2]; 19.2 µM in experiment [3]; 3.97 µM in experiment [4]; 31.1 µM in [5]; 2.5 µM in experiment [6]. The TGI turned out to be 8.8 µM in [7], 14.7 µM in [8] and 16.7 µM in experiment [9].
As for `CC1=CC(=Nc2ccc(N(CCCl)CCCl)cc2)C=C(C)C1=O`, the GI50 is 1.68 µM in experiment [1]; 1.46 µM in [10]; 1.1 µM in [2]; 0.392 µM in [3]; 0.181 µM in experiment [5]; 1.48 µM in experiment [7]. The figures for the GI50 in experiment [8] and in experiment [9] were 1.94 µM and 1.02 µM, respectively. Moreover, the TGI in [1] was 4.13 µM; in experiment [10] it was 3.16 µM; in [2], 7.37 µM; in experiment [3], 2.06 µM; in [5], 1.96 µM; in experiment [7], 4.77 µM. Besides, the TGI in experiment [8] came to 5.55 µM; in experiment [9], 7.33 µM.
On to `CC1=NN(C(=O)Nc2ccccc2)C(=O)C2CCC(=O)N12` (centres undefined), for which the TGI in experiment [1], in experiment [2], in experiment [3], in experiment [4], in [5] and in [7] was > 100 µM in each case. Besides, the TGI in experiment [8] and in [9] was > 100 µM in each case.
On to `O=c1/c(=C/c2ccco2)sc2nc3ccccc3n12`, for which the GI50 in experiment [1] is > 100 µM; in [4] it was > 100 µM; in [5], > 100 µM; in experiment [6], > 100 µM; in [7], > 100 µM; in experiment [8], > 10 µM. Moreover, the TGI in experiment [1] is > 100 µM; in [2], > 100 µM; in experiment [3] it was > 10 µM; in experiment [4], > 100 µM; in [5] it was > 100 µM; in experiment [6], > 100 µM. Moreover, the TGI is > 100 µM in [7], > 100 µM in experiment [8] and > 10 µM in [9].
